Reference: publication PMC4595804, “A strategy to discover decoy chemokine ligands with an anti-inflammatory activity” (Scientific Reports, 2015)

Key:
[1] = biological target: T1, COX1 (Homo sapiens, UniProt P23219); experiment: COX1 mediated PGE2 release in primary monocytes; format: cell-based; conditions: monocytes + arachidonic acid
T1 construct: endogenous in cells; host or cells: primary human monocytes
Description: the wound closure was determined as the difference between wound width at times 0 and 72h. This experiment was repeated three times.
Human primary monocytes were isolated from buffy coats of healthy human blood donors and seeded in 24-well plates (500,000 cells/ml in 1ml) for COX-1/2 activity or 96-well plates for cell viability experiments.
Cells were seeded in 96 well plates (5,000 cells/well in 200µl) for cytotoxicity testing (Alamar […]
doses). After 24h, cytotoxicity was evaluated in the wells using the Alamar Blue method. NaF (250µg/ml) was used as a control in this experiment.
Cyclooxygenase (COX) activity
COX1 mediated prostaglandin E2 (PGE2) release. Monocytes were treated with arachidonic […]
were then collected for the determination of PGE2 by enzyme immunoassay (EIA) […]
COX2 mediated prostaglandin E2 (PGE2) release. Monocytes were incubated with LPS (10U/ml) for 24h to induce COX2 protein synthesis. After renewal of medium (serum free), […]
before AA treatment. The activity of COX2 was determined by measuring PGE2 (Cayman) in the supernatants by EIA. Aspirin (10µM) and diclofenac (10µM) were used as control […]
NaF (250µg/ml) was used as a control (relative light unit, r.l.u). (c) Monocytes were treated […]
GPN136 (grey bars). The activity of COX1 was determined by measuring prostaglandin E2 (PGE2). […]
of COX2 was determined by measuring PGE2. […]

[2] = system: Balb/c mice sensitized and challenged with OVA; experiment: Mouse model of allergic eosinophilic airway inflammation (OVA), BAL cell counts; format: in vivo; conditions: vs vehicle-treated OVA mice; for overall number of inflammatory cells in BALF: 350 μmol/kg I.P. 2 h before each challenge; for CD4+ T cells in BALF / CD11c+F4/80− dendritic cells in BALF / T cells in BALF / neutrophil counts in BALF / number of CD11c+F4/80+ macrophages in BALF / recruited eosinophils in BALF: 350 μmol/kg I.P.
Description: The differential number of cells recovered in BAL fluid 24 h after the last challenge was counted by flow cytometry. Live leukocytes were identified as CD45^+DAPI^− cells then differentiated into T cells (CD11b^lowCD19^−CD3^+), CD4^+T cells (CD11b^lowCD19^−CD3^+CD4^+), eosinophils (CD11b^+CD11c^−GR1^−), neutrophils (CD11b^+CD11c^−GR1^+), macrophages (CD11b^+GR1^−CD11c^+F4/80^+), dendritic cells (CD11b^+GR1^−CD11c^+F4/80^−).
Nine week-old male Balb/c mice (Janvier) were sensitized on days 1 and 7 by intraperitoneal injection of ovalbumin (OVA, 50μg, grade V, Sigma-Aldrich) adsorbed on aluminium hydroxide (2 mg, Sigma-Aldrich) in PBS. Mice were challenged intranasally with OVA (10 μg) in 25μl of saline on days 18–21. Control mice received intranasal administrations of saline alone. […] Animal experimentation was approved by the local ethics committee (Comité Régional d’Ethique en Matière d’Expérimentation Animale de Strasbourg CREMEAS) and carried out in accordance with the approved guidelines. Collection of the bronchoalveolar lavage fluid (BALF) was performed 24 h after the last OVA challenge as described previously. Cell counts were assessed by flow cytometry (LSRII® cytometer, BD bioscience). BAL cells were added with FCblock (5 μl, 553142, BD bioscience) in a black microplate, incubated for 20 min at room temperature. Then, marker antibodies were added: CD11c-FITC (557400, BD bioscience), Gr-1-Pe-eFluor610 (61-5931-82, eBioscience), CD11b-APC-Cy7 (557657, BD bioscience), CD45-AlexaFluor700 (103128, BioLegend), CD3-BV605 (564009, BD bioscience), CD4-PerCP-Cy5.5 (45-0042-82, eBioscience), F4/80-PE (12-4801-82, eBioscience). Antibodies were incubated for 30 min before DAPI (5 μl, BD bioscience) addition, and flow cytometry was performed immediately.

T1 sequence (P23219 24-599): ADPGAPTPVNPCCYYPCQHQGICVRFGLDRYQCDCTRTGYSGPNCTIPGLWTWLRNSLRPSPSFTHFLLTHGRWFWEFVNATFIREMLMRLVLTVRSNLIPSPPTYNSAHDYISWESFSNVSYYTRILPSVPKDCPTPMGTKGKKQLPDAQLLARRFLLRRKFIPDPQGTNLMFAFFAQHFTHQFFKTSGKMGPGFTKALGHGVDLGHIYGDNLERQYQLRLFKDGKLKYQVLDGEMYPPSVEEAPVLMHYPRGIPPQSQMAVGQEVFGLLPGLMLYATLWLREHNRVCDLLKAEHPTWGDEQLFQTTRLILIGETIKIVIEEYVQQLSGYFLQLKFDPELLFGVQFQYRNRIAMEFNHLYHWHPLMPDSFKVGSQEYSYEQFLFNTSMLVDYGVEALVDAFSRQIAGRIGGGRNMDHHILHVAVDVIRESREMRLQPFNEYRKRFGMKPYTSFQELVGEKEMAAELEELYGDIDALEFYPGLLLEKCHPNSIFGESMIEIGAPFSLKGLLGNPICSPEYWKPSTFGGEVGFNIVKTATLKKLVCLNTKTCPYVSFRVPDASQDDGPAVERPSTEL

Question: Which results are given for `O=C(OCC(O)CO)c1ccccc1O` (stereo not shown) [GPN136, 2,3-dihydroxypropyl 2-hydroxybenzoate]?
Answer: doses at which COX1 activity is inhibited [1]: > 100 µM; overall number of inflammatory cells in BALF [2]: significantly reduced; CD4+ T cells in BALF [2]: significantly reduced; CD11c+F4/80− dendritic cells in BALF [2]: significantly reduced; T cells in BALF [2]: significantly reduced; neutrophil counts in BALF [2]: did not; number of CD11c+F4/80+ macrophages in BALF [2]: not modified; recruited eosinophils in BALF [2]: significantly reduced

Question: Which results are given for `CC(C)=CCn1cnc2c1c(=O)n(C)c(=O)n2C` [GPN279, 1,3-dimethyl-7-(3-methylbut-2-enyl)-1H-purine-2,6(3H, 7H)-dione]?
Answer: effect on COX1 activity (PGE2) ([1]; 100 µM): no effect; overall number of inflammatory cells in BALF [2]: significantly reduced; CD4+ T cells in BALF [2]: significantly reduced; CD11c+F4/80− dendritic cells in BALF [2]: significantly reduced; T cells in BALF [2]: significantly reduced; neutrophil counts in BALF [2]: significantly inhibited; number of CD11c+F4/80+ macrophages in BALF [2]: not modified; recruited eosinophils in BALF [2]: significantly reduced
